From paper PMC3274524, “In Vitro Pharmacological Characterization of RXFP3 Allosterism: An Example of Probe Dependency” (PLoS ONE, 2012) come the findings set out here.

The target of experiment [1] is T1, norepinephrine transporter (Homo sapiens, UniProt P23975).
T1 construct: gene SLC6A2
The experiment in a line: radioligand binding selectivity panel (CEREP/in house), single concentration.

The target in experiment [2] is T2, serotonin 5-HT1A (Homo sapiens, UniProt P08908).
T2 construct: gene HTR1A
T2 sequence (P08908 1-422): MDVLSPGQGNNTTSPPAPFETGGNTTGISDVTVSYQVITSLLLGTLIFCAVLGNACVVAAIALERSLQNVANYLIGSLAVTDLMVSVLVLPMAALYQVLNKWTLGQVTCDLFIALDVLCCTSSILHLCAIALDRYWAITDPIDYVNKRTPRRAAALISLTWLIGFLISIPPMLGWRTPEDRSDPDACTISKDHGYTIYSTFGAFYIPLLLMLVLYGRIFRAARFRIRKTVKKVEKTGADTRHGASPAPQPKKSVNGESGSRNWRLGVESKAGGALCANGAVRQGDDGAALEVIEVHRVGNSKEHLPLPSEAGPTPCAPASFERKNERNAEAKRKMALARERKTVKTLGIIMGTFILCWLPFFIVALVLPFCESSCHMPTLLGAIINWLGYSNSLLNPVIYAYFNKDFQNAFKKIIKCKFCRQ
The experiment is described as above.

Experiment [3] deals with T3, RXFP3 (relaxin-3 receptor; GPCR135; SALPR) (Homo sapiens, UniProt Q9NSD7).
T3 construct: cloned human RXFP3 receptor, stably expressed in HEK-293 cells with GqI5; with Relaxin-3NH2 (amidated orthosteric agonist; also R3/I5NH2)
T3 sequence (Q9NSD7 1-469): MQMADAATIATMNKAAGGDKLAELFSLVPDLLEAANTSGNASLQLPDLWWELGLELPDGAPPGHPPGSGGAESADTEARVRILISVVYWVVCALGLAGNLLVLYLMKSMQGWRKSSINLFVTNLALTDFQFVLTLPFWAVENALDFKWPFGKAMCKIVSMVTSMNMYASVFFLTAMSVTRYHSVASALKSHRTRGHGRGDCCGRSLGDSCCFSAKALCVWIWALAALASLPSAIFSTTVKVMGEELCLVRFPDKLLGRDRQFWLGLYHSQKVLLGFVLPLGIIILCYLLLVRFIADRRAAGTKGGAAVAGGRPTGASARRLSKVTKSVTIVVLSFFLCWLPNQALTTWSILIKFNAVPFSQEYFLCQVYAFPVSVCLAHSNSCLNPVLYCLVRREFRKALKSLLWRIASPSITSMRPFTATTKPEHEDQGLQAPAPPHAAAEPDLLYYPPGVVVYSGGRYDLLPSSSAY
The experiment in a line: Ca2+ mobilization (FLIPR) agonist curve shift, allosteric ternary complex model; also increased […]R3/I5NH2 binding in membranes. The format is cell-based. (Calcium assays in cells follow changes in intracellular calcium, usually with a dye or a luminescent sensor.)

Experiment [4] concerns the target T4, dopamine transporter (Homo sapiens, UniProt Q01959).
T4 construct: gene SLC6A3
As to the kind of experiment: radioligand binding selectivity panel (CEREP/in house), single concentration.

T1 sequence (P23975 whole entry): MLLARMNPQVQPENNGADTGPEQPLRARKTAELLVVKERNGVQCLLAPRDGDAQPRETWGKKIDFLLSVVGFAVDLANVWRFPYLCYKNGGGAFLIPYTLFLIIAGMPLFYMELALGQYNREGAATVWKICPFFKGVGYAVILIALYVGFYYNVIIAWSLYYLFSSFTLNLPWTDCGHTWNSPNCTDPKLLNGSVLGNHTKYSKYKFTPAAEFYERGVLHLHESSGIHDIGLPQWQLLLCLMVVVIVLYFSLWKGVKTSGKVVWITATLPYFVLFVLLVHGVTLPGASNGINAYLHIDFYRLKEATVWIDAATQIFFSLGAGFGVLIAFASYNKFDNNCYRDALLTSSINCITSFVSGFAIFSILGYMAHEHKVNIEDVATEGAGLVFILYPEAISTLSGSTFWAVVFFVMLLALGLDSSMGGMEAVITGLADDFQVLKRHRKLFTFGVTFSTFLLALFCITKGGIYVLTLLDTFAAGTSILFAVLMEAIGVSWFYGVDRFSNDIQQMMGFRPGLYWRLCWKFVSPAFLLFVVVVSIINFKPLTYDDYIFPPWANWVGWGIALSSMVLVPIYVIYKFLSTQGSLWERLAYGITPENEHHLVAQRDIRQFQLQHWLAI
T4 sequence (Q01959 whole entry): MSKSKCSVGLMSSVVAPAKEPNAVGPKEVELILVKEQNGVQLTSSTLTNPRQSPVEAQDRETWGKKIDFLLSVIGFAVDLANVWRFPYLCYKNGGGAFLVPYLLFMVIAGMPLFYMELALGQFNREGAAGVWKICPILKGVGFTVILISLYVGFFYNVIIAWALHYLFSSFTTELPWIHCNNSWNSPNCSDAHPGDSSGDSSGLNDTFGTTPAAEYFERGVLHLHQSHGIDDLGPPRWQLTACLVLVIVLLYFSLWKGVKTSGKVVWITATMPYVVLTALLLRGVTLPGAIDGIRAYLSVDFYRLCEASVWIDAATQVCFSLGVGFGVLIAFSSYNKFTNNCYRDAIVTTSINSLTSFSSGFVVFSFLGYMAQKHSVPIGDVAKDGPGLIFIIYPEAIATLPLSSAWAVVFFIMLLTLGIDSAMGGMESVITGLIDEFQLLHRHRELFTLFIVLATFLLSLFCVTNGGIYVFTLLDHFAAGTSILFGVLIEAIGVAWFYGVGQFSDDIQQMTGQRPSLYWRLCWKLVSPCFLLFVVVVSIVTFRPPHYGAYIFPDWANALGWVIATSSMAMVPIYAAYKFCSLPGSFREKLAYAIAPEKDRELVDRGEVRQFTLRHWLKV

Regarding `COc1ccc2[nH]cc(CCN(Cc3ccc(Cl)c(Cl)c3)C(=O)Nc3cc(C(F)(F)F)cc(C(F)(F)F)c3)c2c1` [135PAM1, 3-[3,5-Bis(trifluoromethyl)phenyl]-1-(3,4-dichlorobenzyl)-1-[2-(5-methoxy-1H-indol-3-yl)ethyl]urea], the results for the inhibition at 10 µM in experiment [1], in experiment [2] and in experiment [4] were 59%, 74% and 83%, respectively. In addition, in experiment [3], the Kb was 355 nM.

In general, inhibition refers to the change of the read-out against control, counted positive when it falls.
